Some test systems named below: A549 NSCLC; HCT-116 colon; HS 578T breast; HT29 colon; IGROV1 ovarian; MCF7 breast; NCI/ADR-RES ovarian; PC-3 prostate; SF-268 CNS; SK-OV-3 ovarian.
Common to all, as to assay: growth of human tumour cells (NCI), 48 h

Each structure is given as a SMILES string. Several values for one entry are separate records, joined by “and”; a condition that tells them apart may be missing. Identical values can stand only once.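 All cell lines were grown in 96-well plates and treated with compound for 48 hours. GI50 = concentration required for 50% inhibition of growth. Definition used: TGI = concentration required for complete inhibition of growth.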

In the case of `COc1cc(/C=N/Nc2ncnc3c2cnn3-c2ccccc2)ccc1O`, the GI50 with A549 NSCLC is more than 20.5 µM; with HCT-116 colon, 8.18 µM; with HS 578T breast, 2.18 µM; in the experiment with HT29 colon, 8.18 µM; in the experiment with IGROV1 ovarian, 5.03 µM; with MCF7 breast, 6.54 µM. Also, the GI50 in the experiment on NCI/ADR-RES ovarian was more than 20.9 µM; with PC-3 prostate, 5.24 µM; in the experiment on SF-268 CNS, more than 18.4 µM; with SK-OV-3 ovarian, 9.88 µM. Besides, the TGI in the experiment on A549 NSCLC is more than 25 µM; in the experiment on HCT-116 colon it was more than 25 µM; in the experiment with HS 578T breast it was more than 25 µM; with HT29 colon, more than 24.1 µM; in the experiment on IGROV1 ovarian, more than 22.8 µM; with MCF7 breast, more than 25 µM. Further, the TGI in the experiment on NCI/ADR-RES ovarian, with PC-3 prostate, with SF-268 CNS and in the experiment with SK-OV-3 ovarian was more than 25 µM throughout.
Consider `CC(C)(C)C1CCC2c3c([nH]c4ccccc34)C3C(=O)N(c4ccc(Cl)cc4)C(=O)C3C2C1` (configuration not stated), for which the GI50 was 67 µM and > 10 µM in the experiment with A549 NSCLC; 65.3 µM and > 10 µM in the experiment with HCT-116 colon; more than 100 µM with HS 578T breast; 34.5 µM and > 10 µM in the experiment with HT29 colon; more than 100 µM in the experiment on IGROV1 ovarian; 51.3 µM and > 10 µM with NCI/ADR-RES ovarian. The GI50 is 37.4 µM and > 10 µM in the experiment with PC-3 prostate; 53.9 µM and > 10 µM with SF-268 CNS; more than 100 µM in the experiment with SK-OV-3 ovarian. The TGI is more than 100 µM in the experiment on A549 NSCLC; more than 100 µM in the experiment with HCT-116 colon; more than 100 µM with HS 578T breast; more than 100 µM with HT29 colon; more than 100 µM in the experiment with IGROV1 ovarian; 99.6 µM in the experiment with MCF7 breast. Moreover, the TGI with NCI/ADR-RES ovarian, in the experiment with PC-3 prostate, in the experiment with SF-268 CNS and in the experiment with SK-OV-3 ovarian was more than 100 µM in each case.
For `COc1ccc2c(c1)[nH]c(=O)c1c3cccc(F)c3cn21`, the GI50 in the experiment on A549 NSCLC is 0.0667 µM; in the experiment with HCT-116 colon, 0.0458 µM; in the experiment with HS 578T breast, 0.0299 µM; in the experiment with HT29 colon it was 0.0306 µM; in the experiment on IGROV1 ovarian, 0.0397 µM; in the experiment with MCF7 breast it was 0.22 µM. In addition, the GI50 with NCI/ADR-RES ovarian is 0.038 µM; in the experiment with PC-3 prostate it was 0.0345 µM; in the experiment on SF-268 CNS it was 0.0749 µM; with SK-OV-3 ovarian, 0.0848 µM. In addition, the TGI was more than 100 µM in the experiment on A549 NSCLC; 13.9 µM in the experiment with HCT-116 colon; 0.0904 µM in the experiment on HS 578T breast; more than 94.6 µM in the experiment with MCF7 breast; 14.3 µM in the experiment with NCI/ADR-RES ovarian; more than 31.9 µM in the experiment with PC-3 prostate. In addition, the figures for the TGI in the experiment with SF-268 CNS and in the experiment on SK-OV-3 ovarian were 44.7 µM and more than 83.5 µM, respectively.
As for `CCOC(=O)Oc1cc2c(c(OC)c1OC)-c1ccc(OC)c(=O)cc1C(NC(C)=O)CC2` (configuration not stated), the TGI in the experiment on A549 NSCLC was more than 100 µM; in the experiment on HCT-116 colon, 1.85 µM; in the experiment with HS 578T breast it was more than 100 µM; with HT29 colon it was 13.2 µM; with IGROV1 ovarian it was more than 69.6 µM; in the experiment on MCF7 breast it was more than 100 µM. Also, the TGI in the experiment on NCI/ADR-RES ovarian was more than 57.9 µM; in the experiment with PC-3 prostate, more than 100 µM; in the experiment with SF-268 CNS, 73.5 µM; with SK-OV-3 ovarian it was 98.1 µM.
`CCC(C)Nc1ccc(N)cc1` (configuration not stated): the GI50 in the experiment on A549 NSCLC is 4.7 µM; with HCT-116 colon it was 2.73 µM; with HS 578T breast it was 4.35 µM; in the experiment on HT29 colon, 3.16 µM; with IGROV1 ovarian, 4.79 µM; in the experiment with MCF7 breast it was 3.41 µM. For the same compound, the GI50 in the experiment on NCI/ADR-RES ovarian is 10.6 µM; with PC-3 prostate, 2.56 µM; in the experiment with SF-268 CNS, 5.61 µM; in the experiment on SK-OV-3 ovarian, 4.98 µM. The TGI with A549 NSCLC turned out to be 48.5 µM; with HCT-116 colon, 8.73 µM; in the experiment on HS 578T breast it was 24.4 µM; in the experiment with HT29 colon it was 10.7 µM; in the experiment on IGROV1 ovarian, 20.5 µM; in the experiment with MCF7 breast, 12.4 µM. Further, the TGI was found to be 28 µM in the experiment with NCI/ADR-RES ovarian, 11.2 µM in the experiment on PC-3 prostate, 19.2 µM in the experiment on SF-268 CNS and 93.3 µM with SK-OV-3 ovarian.
As for `CCN(Cc1ccccc1)C1CCN(Cc2cc(Br)ccc2O)CC1`, the GI50 is 69.6 µM with A549 NSCLC; 23.2 µM in the experiment on HCT-116 colon; 57.2 µM in the experiment with HS 578T breast; 20.1 µM with HT29 colon; more than 100 µM with IGROV1 ovarian; 27.8 µM in the experiment on MCF7 breast. The GI50 with NCI/ADR-RES ovarian is 31.9 µM; in the experiment with PC-3 prostate, 38.9 µM; with SF-268 CNS, 59.7 µM; in the experiment on SK-OV-3 ovarian, 77.4 µM. Moreover, the TGI in the experiment with A549 NSCLC, in the experiment with HCT-116 colon, in the experiment on HS 578T breast, with HT29 colon, with IGROV1 ovarian and in the experiment with MCF7 breast was more than 100 µM throughout. Further, the TGI in the experiment on NCI/ADR-RES ovarian, with PC-3 prostate, with SF-268 CNS and with SK-OV-3 ovarian was more than 100 µM throughout.
Regarding `CNC(=O)c1cc(Oc2ccc(NC(=O)Nc3ccc(Cl)c(C(F)(F)F)c3)c(F)c2)ccn1`, the GI50 in the experiment on A549 NSCLC was 2.39 µM and 2.64 µM; in the experiment on HCT-116 colon it was 0.944 µM and 0.792 µM; with HS 578T breast, 1.59 µM and 1.61 µM; in the experiment with HT29 colon, 1.82 µM and 1.43 µM; in the experiment on IGROV1 ovarian, 2.75 µM and 1.85 µM; with MCF7 breast it was 2.12 µM and 2.29 µM. The GI50 is 2.67 µM and 2.44 µM in the experiment on NCI/ADR-RES ovarian; 2.82 µM and 2.7 µM in the experiment on PC-3 prostate; 2.93 µM and 3.02 µM with SF-268 CNS; 3.2 µM and 2.43 µM with SK-OV-3 ovarian. In addition, the TGI is more than 24.1 µM in the experiment on A549 NSCLC; 10.8 µM and 8.8 µM in the experiment on HCT-116 colon; 16.9 µM and > 10 µM with HS 578T breast; 8.83 µM and > 10 µM in the experiment with HT29 colon; 11.2 µM and > 10 µM with IGROV1 ovarian; 6.88 µM and 9.02 µM in the experiment on MCF7 breast. Moreover, the TGI in the experiment with NCI/ADR-RES ovarian was 9.81 µM and > 10 µM; in the experiment on PC-3 prostate, more than 64.6 µM; with SF-268 CNS it was 14 µM and > 10 µM; in the experiment with SK-OV-3 ovarian, 12.3 µM and 8.49 µM.
As to `Cc1ccc(/C=N/Nc2nc(Nc3ccccc3)nc(-n3nc(C)cc3C)n2)cc1`, the GI50 with A549 NSCLC is 4.19 µM; with HCT-116 colon, 3.18 µM; with HS 578T breast, 5.03 µM; in the experiment on HT29 colon, 3.55 µM; with IGROV1 ovarian, 4.99 µM; with MCF7 breast it was 2.89 µM. Moreover, the GI50 with NCI/ADR-RES ovarian was 2.53 µM; in the experiment with PC-3 prostate, 2.67 µM; in the experiment with SF-268 CNS, 4.42 µM; in the experiment with SK-OV-3 ovarian, 11.8 µM. Further, the TGI is 35.7 µM in the experiment with A549 NSCLC; 11.7 µM in the experiment with HCT-116 colon; 56.5 µM in the experiment with HS 578T breast; more than 100 µM with HT29 colon; 44.8 µM in the experiment on IGROV1 ovarian; 10.6 µM in the experiment on MCF7 breast. Besides, the TGI is 8.67 µM in the experiment on NCI/ADR-RES ovarian, 23.6 µM with PC-3 prostate, more than 100 µM in the experiment on SF-268 CNS and more than 100 µM in the experiment on SK-OV-3 ovarian.
Regarding `CCc1ccc(CCC(=O)Nc2ncc(Cc3ccc(Cl)cc3)s2)o1`, the GI50 was 0.496 µM in the experiment with A549 NSCLC; 0.427 µM in the experiment with HCT-116 colon; 0.3 µM with HS 578T breast; 0.367 µM with HT29 colon; 0.549 µM in the experiment on IGROV1 ovarian; 0.328 µM in the experiment with MCF7 breast. The GI50 is 0.335 µM with NCI/ADR-RES ovarian, 0.403 µM in the experiment on PC-3 prostate, 1.68 µM with SF-268 CNS and 0.449 µM in the experiment on SK-OV-3 ovarian. Also, the TGI in the experiment with A549 NSCLC was more than 100 µM; with HCT-116 colon, more than 100 µM; in the experiment on HS 578T breast it was 27.9 µM; in the experiment on HT29 colon it was more than 100 µM; in the experiment with IGROV1 ovarian, more than 100 µM; with MCF7 breast it was more than 100 µM. In addition, the TGI is more than 75.3 µM in the experiment on NCI/ADR-RES ovarian, more than 100 µM in the experiment on PC-3 prostate, more than 100 µM in the experiment on SF-268 CNS and more than 100 µM in the experiment on SK-OV-3 ovarian.
With `CC(C)(C)c1ccc(Oc2ccc(N)cn2)cc1`, the GI50 in the experiment on A549 NSCLC was 9.19 µM; in the experiment with HCT-116 colon, 47.5 µM; in the experiment with HS 578T breast it was 43.9 µM; in the experiment with HT29 colon, 47.2 µM; in the experiment on IGROV1 ovarian, more than 100 µM; with MCF7 breast it was 46.5 µM. Also, the GI50 was 51.6 µM in the experiment with NCI/ADR-RES ovarian, 8.02 µM in the experiment with PC-3 prostate, 5.77 µM with SF-268 CNS and more than 100 µM with SK-OV-3 ovarian. The TGI with A549 NSCLC, in the experiment with HCT-116 colon, in the experiment with HS 578T breast, in the experiment with HT29 colon, in the experiment on IGROV1 ovarian and with MCF7 breast was more than 100 µM throughout. Moreover, the TGI in the experiment on NCI/ADR-RES ovarian, in the experiment on PC-3 prostate, with SF-268 CNS and in the experiment with SK-OV-3 ovarian was more than 100 µM each time.
Regarding `CCOC(=O)c1cc2c(cc1Cl)SC(=Nc1ccccc1)N(S(=O)(=O)c1ccc(Cl)cc1)S2(=O)=O`, the GI50 is 26.1 µM with A549 NSCLC; 6.32 µM in the experiment on HCT-116 colon; 17 µM in the experiment with HS 578T breast; 19.4 µM with HT29 colon; 8.11 µM with IGROV1 ovarian; 4.38 µM in the experiment on MCF7 breast. For the same compound, the GI50 in the experiment on NCI/ADR-RES ovarian was 18.3 µM; with PC-3 prostate, 12.2 µM; with SF-268 CNS, 12.1 µM; in the experiment on SK-OV-3 ovarian, 17.4 µM. The TGI in the experiment on A549 NSCLC was 68 µM; in the experiment with HCT-116 colon, 21.9 µM; with HS 578T breast it was 52.9 µM; in the experiment on HT29 colon it was more than 100 µM; in the experiment with IGROV1 ovarian it was 22.5 µM; in the experiment on MCF7 breast, 15.9 µM. Besides, the TGI with NCI/ADR-RES ovarian amounted to 36.5 µM; in the experiment with PC-3 prostate, 28.6 µM; in the experiment on SF-268 CNS, 32 µM; in the experiment with SK-OV-3 ovarian it was 35.2 µM.

These data come from PubChem BioAssay (NCI).
